The experiment deals with SARS-CoV-2 RBD (Severe acute respiratory syndrome coronavirus 2, UniProt P0DTC2). As to the kind of experiment: biochemical. It counts as binding.

Molecules are shown by their SMILES.

`O=c1c(O)c(-c2ccc(O)c(O)c2)oc2cc(O)cc(O)c12` [compound 4, quercetin] had a Kd of 75.6 µM.
